Test results published in PubChem BioAssay AID2060894 (Molecular Pharmacology Branch, DTP, NCI, 2025).
Several values for one entry are separate records, joined by “and”; a condition that tells them apart may be missing. Identical values can stand only once.

Test system: K12877-001-R-J1-PDC complex spheroid viability
Test: Anticancer human tumor K12877-001-R-J1-PDC patient-derived lung adenocarcinoma cell line growth inhibition [RAS]
Details: for viability, T/C: stronger effect = lower value
From the text: RAS pathway inhibitors in Combinations in Complex Spheroids
A high-throughput screen of multi-cell type tumor spheroids was designed to identify active combinations of RAS pathway inhibitors and targeted small molecules. Complex spheroids include a stromal component modeled by human endothelial cells (HUVEC) and fibroblasts modeled by human mesenchymal stem cells (MSCs). The concentration ranges selected for each drug and investigational agent were based upon clinically achievable concentrations if the clinical Cmax of the agent was known.
Compounds. The drugs and investigational agents: abemaciclib (NSC768073), cobimetinib (NSC768068), divarasib (GDC6063, NSC841802), docetaxel (NSC628503), GDC-1971 (RLY-1971, NSC841576), gemcitabine (NSC613327), inavolisib (NSC800729), ipatasertib (NSC767898), KB-0742 (NSC834161), MRTX-1133 (NSC836407), osimertinib (NSC779217), RMC-4630 (NSC839698), RMC-6236 (NSC851965), RMC-6291 (NSC852671), Ro-3306 (NSC812927), sapanisertib (NSC764658), SN-38 (NSC673596), staurosporine (NSC755774), SY5609 (NSC837396), and tovorafenib (DAY101, NSC766906), were obtained from the National Cancer Institute (NCI) Developmental Therapeutics Program Chemical Repository. The FDA-approved anticancer drug set is available from the NCI Developmental Therapeutics Program. […] The stock solutions were prepared in dimethyl sulfoxide (DMSO, Sigma-Aldrich, St. Louis, MO, cat. D2650) at 800-fold the tested concentration and stored at -70 degrees C prior to their use. All drugs and investigational agents were tested over a range starting from a high concentration at or near the clinical Cmax and decreasing in half-log increments. If the clinical Cmax for an agent had not been determined, the highest concentration tested was 10 microM.
Cell Culture. All cells were maintained in an incubator at 37 degrees C and 5% CO2 with 95% humidity. The PDC lines were cultured according to standard operating procedures established by the NCI PDMR. All PDCs were thawed and cultured in Matrigel-coated flasks prepared with a working solution of 1X Ham's F-12 nutrient mix, without supplementation (Invitrogen, Waltham, MA, cat. 11765054), 100 U/mL penicillin-streptomycin (Invitrogen, cat. 15140122), and 2.5% Matrigel (Corning Inc., Corning, NY, cat. 354248) for the first three passages. The 362531-283-R-J2-PDC and 782815-120-R-J1-PDC lines were cultured in 6C/Colon 1B media, which includes advanced DMEM/F-12 (Thermo Fisher Scientific, cat. 12634028), 10 mM HEPES (Thermo Fisher Scientific, cat. 15630080), 1X GlutaMAX supplement (Thermo Fisher Scientific, cat. 35050061), 0.1 mg/mL primocin (InvivoGen, San Diego, CA, cat. ant-pm-2), 10% defined fetal bovine serum, heat inactivated (HyClone Laboratories Inc., Logan, UT, cat. SH30070.03HI), 50% L-WRN conditioned media (ATCC, cat. CRL-3276), 1.25 mM N-Acetyl-L-cysteine (Sigma-Aldrich, cat. A9165), 10 mM nicotinamide (Sigma-Aldrich, cat. N0636), 1X B-27 supplement (Thermo Fisher Scientific, cat. 17504044), 1X N-2 supplement (Thermo Fisher Scientific, cat. 17502048), 50 ng/mL human EGF (Thermo Fisher Scientific, cat. PHG0311), and 10 microM Y-27632 dihydrochloride (Tocris Bioscience, cat. 1254). The K12877-001-R-J1-PDC line was cultured in 6I media, which includes all 6C/Colon 1B media plus 10 ng/mL human FGF-10 (PeproTech, cat. 100-26), 1 ng/mL human FGF-2 (PeproTech, cat. 100-18B), 1 µM prostaglandin E2 (Tocris Bioscience, cat. 2296), […] hydrocortisone (Sigma-Aldrich, cat. H4001), and […] bovine insulin (Sigma-Aldrich, cat. I6634). The K86415-001-R-J1-PDC line was cultured in 6D media, which includes all 6C/Colon 1B media components minus the L-WRN conditioned media. The 485176-168-R4-J1-PDC was cultured in PANC media, which includes all 6C/Colon 1B media plus 100 ng/mL human FGF-10 (PeproTech, cat. 100-26), 500 nM SB-431542 (Selleckchem, cat. S1067), and 10 nM gastrin (Tocris Bioscience, cat. 3006). […]

[1] = compound alone, run of 09/09/2024
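Also: spheroids exposed to agents for one week before readout.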

IC50 (curve of compound) | Structure (SMILES) | viability, T/C (compound 0.0316 µM) | viability, T/C (compound 0.1 µM) | viability, T/C (compound 0.316 µM) | viability, T/C (compound 1 µM) | viability, T/C (compound 10 µM) | viability, T/C (compound 0.00316 µM) | further results
> 1000 nM | C=CC(=O)Nc1cc(Nc2nccc(-c3cn(C)c4ccccc34)n2)c(OC)cc1N(C)CCN(C)C | 106% [middle of 4 runs] | 101% [middle of 4 runs] | 103% [middle of 4 runs] | 90.8% [middle of 4 runs] |  | 108% [middle of 4 runs] | viability, T/C (compound 0.01 µM): 106% [middle of 4 runs]
25.1 nM [middle of 4 runs] | CC(C)n1nc(-c2ccc3oc(N)nc3c2)c2c(N)ncnc21 | 41.3% [middle of 4 runs] | 15.5% and 26.6% (2×) and 20% |  |  |  | 98.2% [middle of 4 runs] | viability, T/C (compound 0.000316 µM): 105% [middle of 4 runs]
27.1 nM [middle of 4 runs] | CC1(C)CCC(Nc2ncc(C(F)(F)F)c(-c3c[nH]c4c(P(C)(C)=O)c(C#N)ccc34)n2)CN1 (centres undefined) |  |  |  |  |  |  | viability, T/C (compound 0.000949 µM): 102% [middle of 4 runs]; viability, T/C (compound 0.03 µM): 44.5% [middle of 4 runs]; viability, T/C (compound 0.0949 µM): 33% [middle of 4 runs]; viability, T/C (compound 0.3 µM): 28.3% [middle of 4 runs]
1.65 µM [middle of 4 runs] | CCC(CC)c1cc(NC2CCC(N)C2)n2nccc2n1 (centres undefined) | 104% [middle of 4 runs] | 87.1% [middle of 4 runs] | 103% [middle of 4 runs] | 86.7% [middle of 4 runs] | 1.41% [middle of 4 runs] |  | viability, T/C (compound 3.16 µM): 2.99% [middle of 4 runs]
> 1000 nM | CCN1CCN(Cc2ccc(Nc3ncc(F)c(-c4cc(F)c5nc(C)n(C(C)C)c5c4)n3)nc2)CC1 | 100% [middle of 4 runs] | 103% [middle of 4 runs] | 123% [middle of 4 runs] | 96.6% [middle of 4 runs] |  | 104% (2×) and 108% and 116% | viability, T/C (compound 0.01 µM): 96.5% [middle of 4 runs]
5.02 nM [middle of 4 runs] | CCc1c2c(nc3ccc(O)cc13)-c1cc3c(c(=O)n1C2)COC(=O)[C@]3(O)CC |  |  |  |  |  |  | viability, T/C (compound 0.000949 µM): 99.2% [middle of 4 runs]; viability, T/C (compound 0.00949 µM): 14% [middle of 4 runs]; viability, T/C (compound 0.03 µM): 5.09% [middle of 4 runs]; viability, T/C (compound 0.0949 µM): 3.24% [middle of 4 runs]; viability, T/C (compound 0.3 µM): 1.19% [middle of 4 runs]
> 10000 nM | C[C@@H](NC(=O)c1ncnc(N)c1Cl)c1ncc(C(=O)Nc2cc(C(F)(F)F)c(Cl)cn2)s1 | 110% [middle of 4 runs] | 99.7% [middle of 4 runs] | 95% [middle of 4 runs] | 103% [middle of 4 runs] | 95.4% [middle of 4 runs] |  | viability, T/C (compound 3.16 µM): 100% [middle of 4 runs]
> 10000 nM | Cc1nc(N2CCC3(CC2)COC(C)C3N)c(CO)nc1Sc1ccnc(N)c1Cl (centres undefined) |  | 92.8% [middle of 4 runs] | 92.2% [middle of 4 runs] | 93.8% [middle of 4 runs] | 79.5% [middle of 4 runs] |  | 
> 10000 nM and 3820 nM | NC1c2ccccc2OC12CCN(c1cnc3c(N4CCCc5ncccc54)n[nH]c3n1)CC2 (centres undefined) | 100% [middle of 4 runs] | 97.9% [middle of 4 runs] |  |  | 51.5% [middle of 4 runs] |  | 

Continued, compound first:

Structure (SMILES) | IC50 (curve of compound) | viability, T/C (compound 0.0316 µM) | viability, T/C (compound 0.1 µM) | viability, T/C (compound 0.316 µM) | viability, T/C (compound 1 µM) | viability, T/C (compound 10 µM) | viability, T/C (compound 0.00316 µM) | further results
C#Cc1c(F)ccc2cc(O)cc(-c3ncc4c(N5CC6CCC(C5)N6)nc(OCC56CCCN5CC(F)C6)nc4c3F)c12 (centres undefined) |  | 105% [middle of 8 runs] | 107% [middle of 8 runs] | 110% [middle of 8 runs] | 110% [middle of 8 runs] | 96.5% [middle of 8 runs] |  | viability, T/C (compound 3.16 µM): 101% [middle of 8 runs]; IC50 [1]: > 10000 nM
C=CC(=O)N1CCN(c2nc(OCC3CCCN3C)nc3c(F)c(-c4nc(N)cc(C)c4C(F)(F)F)c(Cl)cc23)C(C)C1 (centres undefined) | > 1000 nM |  | 87.8% [middle of 12 runs] | 86% [middle of 12 runs] |  |  | 99.2% [middle of 12 runs] | IC50 [1]: > 1000 nM
CC(=O)OC12COC1CC(O)C1(C)C(=O)C(O)C3=C(C)C(OC(=O)C(O)C(NC(=O)OC(C)(C)C)c4ccccc4)CC(O)(C(OC(=O)c4ccccc4)C21)C3(C)C (centres undefined) | < 31.6 nM | 8.58% [middle of 4 runs] | 6.5% [middle of 4 runs] | 5.06% [middle of 4 runs] | 4.96% [middle of 4 runs] | 15% [middle of 4 runs] |  | viability, T/C (compound 3.16 µM): 6.68% [middle of 4 runs]
CC(C)NCC(C(=O)N1CCN(c2ncnc3c2C(C)CC3O)CC1)c1ccc(Cl)cc1 (centres undefined) |  | 107% and 110% (2×) and 97.4% | 102% [middle of 4 runs] |  |  |  |  | 
CC(Nc1ccc2c(c1)OCCn1cc(N3C(=O)OCC3C(F)F)nc1-2)C(N)=O (centres undefined) |  | 91.3% [middle of 4 runs] |  |  | 69.9% [middle of 4 runs] |  |  | 
CC1(O)CCCC1n1c(=O)c(C(F)F)cc2cnc(NC3CCN(S(C)(=O)=O)CC3)nc21 (centres undefined) |  | 99.7% [middle of 4 runs] |  |  |  | 3.53% [middle of 4 runs] |  | 
CCn1c(-c2cc(N3CCN(C)CC3)cnc2C(C)OC)c2c3cc(ccc31)-c1csc(n1)CC(NC(=O)C1CC1C)C(=O)N1CCCC(N1)C(=O)OCC(C)(C)C2 (centres undefined) |  |  |  |  |  |  |  | viability, T/C (compound 0.000949 µM): 81.8% [middle of 8 runs]; viability, T/C (compound 0.003 µM): 72.1% [middle of 8 runs]; viability, T/C (compound 0.00949 µM): 67.8% [middle of 8 runs]; viability, T/C (compound 0.0949 µM): 107% [middle of 8 runs]; viability, T/C (compound 0.3 µM): 97.1% [middle of 7 runs]; IC50 (compound alone, run of 08/26/2024): > 300 nM
CCn1c(-c2cccnc2C(C)OC)c2c3cc(ccc31)N1CCOC(CC(NC(=O)C(C(C)C)N(C)C(=O)C3(F)CCN(C(=O)C#CC(C)(C)N(C)C)CC3)C(=O)N3CCCC(N3)C(=O)OCC(C)(C)C2)C1 (centres undefined) |  |  |  |  |  |  |  | viability, T/C (compound 0.000949 µM): 86.3% [middle of 8 runs]; viability, T/C (compound 0.003 µM): 81.2% [middle of 8 runs]; viability, T/C (compound 0.00949 µM): 79.2% [middle of 8 runs]; viability, T/C (compound 0.03 µM): 79% [middle of 8 runs]; viability, T/C (compound 0.0949 µM): 72.1% [middle of 8 runs]; viability, T/C (compound 0.3 µM): 72.7% [middle of 8 runs]; IC50 (compound alone, run of 08/20/2024): > 300 nM
Nc1ccn(C2OC(CO)C(O)C2(F)F)c(=O)n1 (centres undefined) | 17.6 nM [middle of 4 runs] | 7.36% [middle of 4 runs] | 5.6% [middle of 4 runs] | 5.52% [middle of 4 runs] | 5.95% [middle of 4 runs] |  | 105% [middle of 4 runs] | viability, T/C (compound 0.01 µM): 90.8% [middle of 4 runs]
O=C(c1ccc(F)c(F)c1Nc1ccc(I)cc1F)N1CC(O)([C@@H]2CCCCN2)C1 | > 1000 nM and 496 nM | 94.9% [middle of 4 runs] | 81.3% [middle of 4 runs] | 81.6% [middle of 4 runs] |  |  | 109% [middle of 4 runs] | viability, T/C (compound 0.01 µM): 93.5% [middle of 4 runs]
